Test results taken from US11117947B2, “Double-acylated GLP-1 derivatives” (Novo Nordisk A/S, priority 2011, dated 2021).
Numbered stars: 1 amine (or outer) side, 2 acyl side, 3 side chain; on linkers, the order of the positions; unused ones are H or OH. Side chains are listed from the residue outwards. Peptide text beside a SMILES is read from it. * marks the point of attachment. Decanoyl(10-(4-HOOC-PhO)) = O=C(O)c1ccc(OCCCCCCCCCC(=O)*)cc1; γGlu = O=C(O)[C@H](CCC(=O)[*:2])N[*:1]; C14 diacid = O=C(O)CCCCCCCCCCCCC(=O)*; AEEA = NCCOCCOCC(=O)O

Test: Estimate of oral bioavailability: gut injection in rat (caprate), exposure in plasma
Type: in vivo
Conditions: injection in jejunum, 1000 uM in 55 mg/ml sodium caprate, plasma concentration (pM) at 30 min divided by dosing solution concentration (μM), mean n=4
Procedure: The GLP-1 derivatives were tested in a concentration of 1000 uM in a solution of 55 mg/ml sodium caprate.
Male Sprague Dawley rats with a body weight upon arrival of approximately 240 g were obtained from Taconic (Denmark) and assigned to the different treatments by simple randomisation, 4 rats per group.
The GLP-1 derivatives were administered in the jejunum either in the proximal part (10 cm distal for the duodenum) or in the mid-intestine (50 cm proximal for the cecum). A PE50-catheter, 10 cm long was inserted into the jejunum, forwarded at least 1.5 cm into the jejunum, and secured before dosing by ligature around the gut and the catheter with 3/0 suture distal to tip to prevent leak or catheter displacement. Catheter was placed without syringe and needle and 2 ml saline was administered into abdomen before closing the incision with wound clips.
100 μl of the respective GLP-1 derivative was injected into the jejunal lumen through the catheter with a 1 ml syringe. Subsequently, 200 μl of air was pushed into the jejunal lumen with another syringe to “flush” the catheter. This syringe was leaved connected to the catheter to prevent flow back into the catheter.
Blood samples (200 ul) were collected at desired intervals (usually at times 0, 10, 30, 60, 120 and 240 min) into EDTA tubes from the tail vein and centrifuged 5 minutes, 10000G, at 4° C. within 20 minutes. […] 12, p. 240-247. The donor beads were coated with streptavidin, while acceptor beads were conjugated with a monoclonal antibody recognising a mid-/C-terminal epitope of the peptide. Another monoclonal antibody, specific for the N-terminus, was biotinylated. The three reactants were combined with the analyte and formed a two-sited immuno-complex. Illumination of the complex released singlet oxygen atoms from the donor beads, which were channeled into the acceptor beads and triggered chemiluminescence which was measured in an Envision plate reader. The amount of light was proportional to the concentration of the compound.
After the blood sampling the rats were sacrificed under anaesthesia and the abdomen was opened to verify correct catheter placement.
The mean (n=4) plasma concentrations (pmol/l) were determined as a function of time.

Structure (SMILES) | Dose-corrected exposure at 30 min
CC[C@H](C)[C@H](NC(=O)[C@H](Cc1ccccc1)NC(=O)[C@H](CCCCNC(=O)CC[C@H](NC(=O)COCCOCCNC(=O)COCCOCCNC(=O)CCCCCCCCCCCCC(=O)O)C(=O)O)NC(=O)[C@H](CCCNC(=N)N)NC(=O)[C@H](C)NC(=O)[C@H](C)NC(=O)[C@H](CCC(N)=O)NC(=O)[C@H](CCCCNC(=O)CC[C@H](NC(=O)COCCOCCNC(=O)COCCOCCNC(=O)CCCCCCCCCCCCC(=O)O)C(=O)O)NC(=O)[C@H](CCC(=O)O)NC(=O)[C@H](CC(C)C)NC(=O)[C@H](Cc1ccc(O)cc1)NC(=O)[C@H](CO)NC(=O)[C@H](CO)NC(=O)[C@@H](NC(=O)[C@H](CC(=O)O)NC(=O)[C@H](CO)NC(=O)[C@@H](NC(=O)[C@H](Cc1ccccc1)NC(=O)[C@@H](NC(=O)CNC(=O)[C@H](CCC(=O)O)NC(=O)[C@H](C)NC(=O)[C@@H](N)Cc1c[nH]cn1)[C@@H](C)O)[C@@H](C)O)C(C)C)C(=O)N[C@@H](C)C(=O)N[C@@H](Cc1c[nH]cn1)C(=O)N[C@@H](CC(C)C)C(=O)N[C@H](C(=O)NCC(=O)O)C(C)C [Example 14, N^ε22-[(4S)-4-carboxy-4-[[2-[2-[2-[[2-[2-[2-(13-carboxytridecanoylamino)ethoxy]ethoxy]acetyl]amino]ethoxy]ethoxy]acetyl]amino]butanoyl], N^ε27-[(4S)-4-carboxy-4-[[2-[2-[2-[[2-[2-[2-(13-carboxytridecanoylamino)ethoxy]ethoxy]acetyl]amino]ethoxy]ethoxy]acetyl]amino]butanoyl]-[Lys^22,Arg^26,Lys^27,His^31,Gly^34]-GLP-1-(7-34)-peptide] (H-HAEGTFTSDVSSYLEK([γGlu-AEEA-AEEA-C14 diacid])QAARK([γGlu-AEEA-AEEA-C14 diacid])FIAHLVG-OH; N-terminus and C-terminus assumed) | 121
CC[C@H](C)[C@H](NC(=O)[C@H](Cc1ccccc1)NC(=O)[C@H](CCCCNC(=O)COCCOCCNC(=O)COCCOCCNC(=O)CC[C@H](NC(=O)CCCCCCCCCOc1ccc(C(=O)O)cc1)C(=O)O)NC(=O)[C@H](CCCNC(=N)N)NC(=O)[C@@H](NC(=O)[C@H](C)NC(=O)[C@H](CCC(N)=O)NC(=O)CNC(=O)[C@H](CCC(=O)O)NC(=O)[C@H](CC(C)C)NC(=O)[C@H](Cc1ccc(O)cc1)NC(=O)[C@H](CO)NC(=O)[C@H](CO)NC(=O)[C@@H](NC(=O)[C@H](CC(=O)O)NC(=O)[C@H](CO)NC(=O)[C@@H](NC(=O)[C@H](Cc1ccccc1)NC(=O)[C@@H](NC(=O)CNC(=O)[C@H](CCC(=O)O)NC(=O)[C@H](C)NC(=O)[C@@H](N)Cc1c[nH]cn1)[C@@H](C)O)[C@@H](C)O)C(C)C)C(C)C)C(=O)N[C@@H](CCC(=O)O)C(=O)N[C@@H](Cc1c[nH]c2ccccc12)C(=O)N[C@@H](CC(C)C)C(=O)N[C@H](C(=O)N[C@@H](CCC(N)=O)C(=O)NCC(=O)N[C@@H](CCCCNC(=O)COCCOCCNC(=O)COCCOCCNC(=O)CC[C@H](NC(=O)CCCCCCCCCOc1ccc(C(=O)O)cc1)C(=O)O)C(=O)NCC(=O)N[C@@H](CCC(=O)O)C(=O)O)C(C)C [Example 13, N^ε27-[2-[2-[2-[[2-[2-[2-[[(4S)-4-carboxy-4-[10-(4-carboxyphenoxy)decanoylamino]butanoyl]amino]ethoxy]ethoxy]acetyl]amino]ethoxy]ethoxy]acetyl], N^ε36-[2-[2-[2-[[2-[2-[2-[[(4S)-4-carboxy-4-[10-(4-carboxyphenoxy)decanoylamino]butanoyl]amino]ethoxy]ethoxy]acetyl]amino]ethoxy]ethoxy]acetyl]-[Val^25,Arg^26,Lys^27,Glu^30,Gln^34,Lys^36]-GLP-1-(7-37)-peptidyl-Glu] (H-HAEGTFTSDVSSYLEGQAVRK([AEEA-AEEA-γGlu-Decanoyl(10-(4-HOOC-PhO))])FIEWLVQGK([AEEA-AEEA-γGlu-Decanoyl(10-(4-HOOC-PhO))])GE-OH; N-terminus and C-terminus assumed) | 126
